Drawing on US20060116390A1, “Hepatitis c virus inhibitors” (priority 2003, published 2006), this text covers IC50 for 24 compounds.

This test deals with HCV proteins in Rep5.1 cells (replicon cell line). Briefly: Inhibitory activity of HCV: cell-based ELISA in replicon cell line Rep5.1 (decrease of HCV proteins). Also noted: species or system hepatitis C virus. Particulars: Rep5.1 cells, 72 hours with drug. Summed up: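 HCV protein loss was quantified by ELISA on methanol/acetone-fixed cells 72 h after drug addition, probing with selected HCV-positive human plasma, and IC50 was defined as 50% reduction relative to untreated wells. The cells were Rep5.1 replicon cells cultured in DMEM-10 with 500 μg/ml G418, plated at 5000 per well and dosed with serial dilutions after 4 h attachment.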

[1] abbreviates: Hepatitis C virus, 72 h, concentration at which 50% of HCV proteins was decreased, Table 2, read-out: IC50.
[2] abbreviates: Hepatitis C virus, 72 h, decrease of HCV proteins measured by HCV antibody, Table 1, read-out: Level (IC50 values classified).
The mark [3] stands for this setting: concentration at which 50% of HCV proteins was decreased, Table 2, read-out: IC50.

Where two headings read alike, the source gives them in different places.

For `CC1=C(C(=O)OCC2CCCCC2)C(CF)NC(=S)N1` (stereo not shown) [51′, 4-fluoromethyl-6-methyl-2-thioxo-1,2,3,4-tetrahydro-pyrimidine-5-carboxylic acid cyclohexylmethyl ester], the concentration for half-maximal inhibition (IC50) under setting [1] is 5.4 µM and the 50% inhibitory concentration (IC50) under setting [2] fell in the range of 1 to 10 µM.

As for `CC1=C(C(=O)OCCC2CCc3ccccc32)CNC(=S)N1` (stereo not shown) [Compound 126, 6-methyl-2-thioxo-1,2,3,4-tetrahydro-pyrimidine-5-carboxylic acid 2-indan-1-yl-ethyl ester], the IC50 under setting [1] is less than 0.4 µM and the half-maximal inhibitory concentration (IC50) under setting [2] is less than 1 µM.

As for `CCn1c2ccccc2c2cc(COC(=O)C3=C(C)NC(=S)NC3)ccc21` [Compound 147, 6-methyl-2-thioxo-1,2,3,4-tetrahydro-pyrimidine-5-carboxylic acid 9-ethyl-9H-carbazol-3-ylmethyl ester], the IC50 by setting is: under setting [1], less than 0.4 µM; under setting [2], less than 1 µM.

As for `CC(=O)OCC1NC(=S)NC(C)=C1C(=O)OCCCc1cccs1` (stereo not shown) [23″, 4-acetoxymethyl-6-methyl-2-thioxo-1,2,3,4-tetrahydro-pyrimidine-5-carboxylic acid 3-thiophen-2-yl-propyl ester], the IC50 is 9 µM under setting [1] and 1 to 10 µM under setting [2].

In the case of `CC1=C(C(=O)OCCc2c(F)c(F)c(F)c(F)c2F)C(CF)NC(=S)N1` (stereo not shown) [60′, 4-fluoromethyl-6-methyl-2-thioxo-1,2,3,4-tetrahydro-pyrimidine-5-carboxylic acid 2-pentafluorophenyl-ethyl ester], under setting [3], the IC50 was determined as 4 µM.

Consider `C=CCC(C=C)OC(=O)C1=C(C)NC(=S)NC1` (stereo not shown) [Compound 55, 6-methyl-2-thioxo-1,2,3,4-tetrahydro-pyrimidine-5-carboxylic acid 1-vinyl-but-3-enyl ester], for which the IC50 is 2.5 µM under setting [1] and 1 to 10 µM under setting [2].

Regarding `CC1=C(C(=O)OCc2ccc(C(F)(F)F)cc2)CNC(=S)N1` [Compound 114, 6-methyl-2-thioxo-1,2,3,4-tetrahydro-pyrimidine-5-carboxylic acid 4-trifluoromethyl-benzyl ester], the IC50 is less than 0.4 µM under setting [1] and less than 1 µM under setting [2].

With `CC1=C(C(=O)SCCc2ccccc2)C(CO)NC(=S)N1` (stereo not shown) [62″, 4-hydroxymethyl-6-methyl-2-thioxo-1,2,3,4-tetrahydro-pyrimidine-5-carbothioic acid S-phenethyl ester], the IC50 is greater than 100 µM under setting [1] and greater than 20 µM under setting [2].

For the compound `CC#CCCOC(=O)C1=C(C)NC(=S)NC1` [Compound 160, 6-methyl-2-thioxo-1,2,3,4-tetrahydro-pyrimidine-5-carboxylic acid pent-3-inyl ester], under setting [3], the IC50 turned out to be 12 µM.

As to `CC1=C(C(=O)OCc2scc(C)c2Cl)C(CF)NC(=S)N1` (stereo not shown) [15′, 4-fluoromethyl-6-methyl-2-thioxo-1,2,3,4-tetrahydro-pyrimidine-5-carboxylic acid 3-chloro-4-methyl-thiophen-2-ylmethyl ester], the IC50 is 1 µM under setting [1] and less than 1 µM under setting [2].

In the case of `COc1ccc(Cl)cc1CCOC(=O)C1=C(C)NC(=S)NC1CF` (stereo not shown) [84′, 4-fluoromethyl-6-methyl-2-thioxo-1,2,3,4-tetrahydro-pyrimidine-5-carboxylic acid 2-(5-chloro-2-methoxy-phenyl)-ethyl ester], the concentration for half-maximal inhibition (IC50) runs as follows: under setting [1], 0.9 µM; under setting [2], less than 1 µM.

Take `CC1=C(C(=O)OCC2COc3ccccc3O2)CNC(=S)N1` (stereo not shown) [Compound 195, 6-methyl-2-thioxo-1,2,3,4-tetrahydro-pyrimidine-5-carboxylic acid 2,3-dihydro-benzo[1,4]dioxin-2-ylmethyl ester]: the concentration for half-maximal inhibition (IC50) is 2 µM under setting [1] and 1 to 10 µM under setting [2].

With `CCOc1cc(COC(=O)C2=C(C)NC(=S)NC2)cc(OCC)c1` [Compound 150, 6-methyl-2-thioxo-1,2,3,4-tetrahydro-pyrimidine-5-carboxylic acid 3,5-diethoxy-benzyl ester], the IC50 was 1 µM under setting [1] and less than 1 µM under setting [2].

As to `COc1ccc(CCCOC(=O)C2=C(C)NC(=S)NC2CF)cc1` (stereo not shown) [43′, 4-fluoromethyl-6-methyl-2-thioxo-1,2,3,4-tetrahydro-pyrimidine-5-carboxylic acid 3-(4-methoxy-phenyl)-propyl ester], the IC50 was 1.8 µM under setting [1] and 1 to 10 µM under setting [2].

In the case of `C=C(C)[C@@H]1CC=C(COC(=O)C2=C(C)NC(=S)NC2)CC1` [Compound 96, 6-methyl-2-thioxo-1,2,3,4-tetrahydro-pyrimidine-5-carboxylic acid (s)-(−)-4-isopropenyl-cyclohex-1-enylmethyl ester], the IC50 was less than 0.4 µM under setting [1] and less than 1 µM under setting [2].

On to `CCCCCCC(C)OC(=O)C1=C(C)NC(=S)NC1` (stereo not shown) [Compound 35, 6-methyl-2-thioxo-1,2,3,4-tetrahydro-pyrimidine-5-carboxylic acid 1-methyl-heptyl ester], for which the IC50 is, setting by setting: under setting [1], less than 0.5 µM; under setting [2], less than 1 µM.

On to `CC1=C(C(=O)OCCc2ccsc2Br)CNC(=S)N1` [Compound 247, 6-methyl-2-thioxo-1,2,3,4-tetrahydro-pyrimidine-5-carboxylic acid 2-(2-bromo-thiophen-3-yl)-ethyl ester], for which the IC50 by setting is: under setting [1], less than 0.4 µM; under setting [2], less than 1 µM.

`CC1=C(C(=O)OCCc2ccc(N3CC=CC3)c([N+](=O)[O-])c2)C(CO)NC(=S)N1` (stereo not shown) [101″, 4-Hydroxymethyl-6-methyl-2-thioxo-1,2,3,4-tetrahydro-pyrimidine-5-carboxylic acid 2-[4-(2,5-dihydro-pyrrol-1-yl)-3-nitro-phenyl]-ethyl ester]: the IC50 was 1.2 µM under setting [1] and 1 to 10 µM under setting [2].

For `CC1=C(C(=O)OCCc2ccccc2)CNC(=S)N1` [Compound 34, 6-methyl-2-thioxo-1,2,3,4-tetrahydro-pyrimidine-5-carboxylic acid phenethyl ester], the IC50 under setting [1] amounted to 2 µM and the IC50 under setting [2] lay in the range of 1 to 10 µM.

Take `CC1=C(C(=O)OCc2sccc2-n2cccc2)CNC(=S)N1` [Compound 220, 6-methyl-2-thioxo-1,2,3,4-tetrahydro-pyrimidine-5-carboxylic acid 3-pyrrol-1-yl-thiophen-2-ylmethyl ester]: the IC50 is, setting by setting: under setting [1], 0.8 µM; under setting [2], less than 1 µM.

On to `CC1=C(C(=O)OCCc2ccc(N(C)C)cc2)CNC(=S)N1` [Compound 95, 6-methyl-2-thioxo-1,2,3,4-tetrahydro-pyrimidine-5-carboxylic acid 2-(4-dimethylamino-phenyl)-ethyl ester], for which the half-inhibitory concentration (IC50) under setting [1] was determined as 0.7 µM and the IC50 under setting [2] was less than 1 µM.

For the compound `CC1=C(C(=O)OCc2cccc(C#N)c2)CNC(=S)N1` [Compound 48, 6-methyl-2-thioxo-1,2,3,4-tetrahydro-pyrimidine-5-carboxylic acid 3-cyano-benzyl ester], the 50% inhibitory concentration (IC50) under setting [1] was 30 µM and the IC50 under setting [2] is 10 to 20 µM.

As to `CC1=C(C(=O)OCCc2ccc(N(C)C)cc2)C(CO)NC(=S)N1` (stereo not shown) [12″, 4-hydroxymethyl-6-methyl-2-thioxo-1,2,3,4-tetrahydro-pyrimidine-5-carboxylic acid 2-(4-dimethylamino-phenyl)-ethyl ester], the IC50 was 31 µM under setting [1] and greater than 20 µM under setting [2].

`CC1=C(C(=O)OC2CCc3ccccc32)CNC(=S)N1` (stereo not shown) [Compound 123, 6-methyl-2-thioxo-1,2,3,4-tetrahydro-pyrimidine-5-carboxylic acid indan-1-yl ester]: the IC50 reads like this: under setting [1], 8 µM; under setting [2], 1 to 10 µM.
